Results published in article PMC9917099, “The Mycotoxin Patulin Inhibits the Mitochondrial Carnitine/Acylcarnitine Carrier (SLC25A20) by Interaction with Cys136 Implications for Human Health” (International Journal of Molecular Sciences, 2023).

Target: T1, CAC in intact rat liver mitochondria (Rattus norvegicus, UniProt P97521)
T1 construct: the native protein extracted from rat liver mitochondria; from tissue; host or cells: rat liver mitochondria (Triton X-100 extract)
T1 sequence (P97521 1-301): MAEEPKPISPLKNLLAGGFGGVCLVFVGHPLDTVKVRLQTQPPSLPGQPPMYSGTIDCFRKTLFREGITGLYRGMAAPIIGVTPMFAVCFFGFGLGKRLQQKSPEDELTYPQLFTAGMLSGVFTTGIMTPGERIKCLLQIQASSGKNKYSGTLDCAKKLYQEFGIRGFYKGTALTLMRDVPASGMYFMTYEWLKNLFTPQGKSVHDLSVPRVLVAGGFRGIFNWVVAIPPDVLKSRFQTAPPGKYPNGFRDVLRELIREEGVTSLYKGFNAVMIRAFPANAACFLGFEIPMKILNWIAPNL
Assay: Treatment of intact rat liver mitochondria, then solubilization, reconstitution in proteoliposomes and carnitine antiport assay
Type: biochemical
Conditions: GSH alone, 5 mM, 60 min, intact mitochondria
Description: Figure 1 Effect of Patulin on the native carnitine/acylcarnitine carrier (CAC). (A) Dose-response analysis of proteoliposomes reconstituted with the CAC extracted from rat liver mitochondria (0.3 mg of total proteins) and incubated with PAT at the indicated concentrations for 30 min, before measuring the transport activity by adding 0.1 mM [^3H] carnitine for 10 min as described in Materials and Methods. The percentage of residual activity compared to control, without PAT treatment, is reported. The values are the means ± SD from three independent experiments. (B) Rat liver mitochondria (5 mg/100 μL) were incubated or not (control) for 60 min, with Patulin (60 μM) or GSH (5 mM) as indicated. Upon treatment, the unreacted drug was removed by washing the mitochondria in PBS 1X and then 0.3 mg mitochondria were solubilized by 3% TX-100, 10 mM PIPES pH 7.0 and reconstituted in proteoliposomes for transport assay as indicated in (A) and Materials and Methods. Black and white bars indicate without or with the addition of 5 mM dithioerythritol (DTE) 1 min before the transport assay to aliquots of each sample.
The effect of PAT on the CAC at 60 µM concentration was also detected in intact rat liver mitochondria. Upon treatment (60 min), the mitochondria were solubilized in Triton X-100 and 0.3 mg of mitochondrial extract were reconstituted in proteoliposomes for testing the transport activity of CAC (see above). […] Aliquots of intact mitochondria incubated with PAT were treated also with reduced GSH to verify whether this physiological SH-reducing agent was able to reverse the mycotoxin-protein interactions.
The recombinant CAC proteins were reconstituted in proteoliposomes as previously described. Rat liver mitochondria after purification, using the standard procedure of cell disruption and differential centrifugation were solubilized with 3% Triton X-100 in a PIPES buffer (10 mM) at pH 7.0. Herein, the mitochondrial extract (0.3 mg) were reconstituted in the liposomes as above described for the mitochondrial CAC recombinant protein, in the absence of reducing agents. The concentration of intraliposomal carnitine was 15 mM in all samples.
For the transport assay, 550 μL of proteoliposomes were passed through a Sephadex G-75 column in order to remove the external substrate. Six hundred μL of the turbid eluate were collected, divided into samples of 100 μL each, and used for transport measurement by the inhibitor-stop method. Transport was started as homoexchange by adding 0.1 mM [^3H]-carnitine to proteoliposomes containing 15 mM carnitine and, at the indicated time interval, stopped by 1.5 mM NEM (N-ethylmaleimide). The inhibitor was added together with the labelled substrate at time zero in the control samples. After finishing the transport reaction, the external radiolabel substrate was removed by gel filtration chromatography (Sephadex G-75), and the intraliposomal radioactivity was measured by liquid scintillation. Transport was measured at 25 °C. The experimental values were corrected by subtracting the controls. Transport rates were measured in 10 min, i.e., within the initial linear range of the time course.

N[C@@H](CCC(=O)N[C@@H](CS)C(=O)NCC(=O)O)C(=O)O [GSH, glutathione, reference compound]
transport activity compared to control: moderate increase
